Laboratory results from patent US7393848B2, “Certain heterocyclic substituted imidazo[1,2-A]pyrazin-8-ylamines and methods of inhibition of Bruton's tyrosine kinase by such compounds” (CGI Pharmaceuticals, Inc., priority 2003, dated 2008).

Molecular target: T1, full length human wildtype Btk (Homo sapiens, UniProt Q06187)
T1 construct: V5 (C); 6xHis (C); made in house; host or cells: Sf9 insect cells (baculovirus, pFastBac / Bac-to-Bac)
Experiment: Biochemical Btk Assay (time-resolved fluorescence kinase assay)
Details: 40 μM ATP, 1 hour at room temperature; read-out: IC50 value in the Btk biochemical assay of Example 7
Procedure: A generalized procedure for one standard biochemical Btk Kinase Assay used to test compounds disclosed in this application is as follows.
A master mix minus Btk enzyme is prepared containing 1× Cell Signaling kinase buffer (25 mM Tris-HCl, pH 7.5, 5 mM […]-glycerophosphate, 2 mM dithiothreitol, 0.1 mM Na3VO4, 10 mM MgCl2), 0.5 μM Promega PTK Biotinylated peptide substrate 2, and 0.01% BSA. A master mix plus Btk enzyme is prepared containing 1× Cell Signaling kinase buffer, 0.5 μM PTK Biotinylated peptide substrate 2, 0.01% BSA, and 100 ng/well (0.06 mU/well) Btk enzyme. Btk enzyme is prepared as follows: full length human wildtype Btk (accession number NM-000061) with a C-terminal V5 and 6× His tag was subcloned into pFastBac vector for making baculovirus carrying this epitope-tagged Btk. […] A quantity of 1.25 μL of compounds in 5% DMSO is transferred to a 96-well ½ area Costar polystyrene plate. […] A quantity of 18.75 μL of master mix minus enzyme (as a negative control) and master mix plus enzyme is transferred to appropriate wells in 96-well ½ area costar polystyrene plate. […] The plate is read using time-resolved fluorescence with a Perkin Elmer Envision using excitation filter 330 nm, emission filter 665 nm, and 2nd emission filter 615 nm. IC50 values are subsequently calculated.

T1 sequence (Q06187 whole entry): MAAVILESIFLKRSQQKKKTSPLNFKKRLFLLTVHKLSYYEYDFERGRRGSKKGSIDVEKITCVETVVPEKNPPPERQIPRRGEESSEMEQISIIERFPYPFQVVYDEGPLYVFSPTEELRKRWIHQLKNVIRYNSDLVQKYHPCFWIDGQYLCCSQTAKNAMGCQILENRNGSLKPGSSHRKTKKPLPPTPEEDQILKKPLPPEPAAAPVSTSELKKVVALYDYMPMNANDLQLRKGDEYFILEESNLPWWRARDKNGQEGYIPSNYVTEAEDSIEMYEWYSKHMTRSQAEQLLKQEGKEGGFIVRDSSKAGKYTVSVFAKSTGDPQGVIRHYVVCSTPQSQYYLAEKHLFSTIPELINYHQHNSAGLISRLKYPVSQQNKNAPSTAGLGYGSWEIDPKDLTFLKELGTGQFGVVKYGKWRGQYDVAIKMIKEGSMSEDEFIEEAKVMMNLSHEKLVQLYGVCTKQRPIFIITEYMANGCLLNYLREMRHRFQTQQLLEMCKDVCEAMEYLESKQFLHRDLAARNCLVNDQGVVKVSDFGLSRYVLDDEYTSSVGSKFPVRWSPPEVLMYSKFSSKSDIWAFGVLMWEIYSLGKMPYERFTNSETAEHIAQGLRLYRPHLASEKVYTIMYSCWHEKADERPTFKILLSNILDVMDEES

IC50: < 1000 nM
SMILES: CC(C)(C)c1ccc(C(=O)Nc2cccc(-c3cn4ccnc4c(Nc4ccc5[nH]ncc5c4)n3)c2)cc1 [Example 6]
